In paper PMC6884535, “Detection of colonic neoplasia in vivo using near-infrared-labeled peptide targeting cMet” (Scientific Reports, 2019):
Where a SMILES comes first, the peptide text is derived from it. Where no end group is shown, it is not given here. The star is where a group is joined. X1 = CN1/C(=C/C=C/C=C/C2=[N+](CCCCCC(=O)*)c3ccc4ccccc4c3C2(C)C)C(C)(C)c2c1ccc1ccccc21

Assays:
[1] = test system: CCD841 cells; experiment: Alamar blue growth assay, CCD841 cells; format: cell-based, human; details: 48 hours, 37 °C; HGF 25 ng/mL or QQT*-Cy5.5 5 or 100 μM; 3 independent experiments
Procedure: (§1) An alamar blue assay was performed using HT29 and CCD841 cells. After culturing in serum free media overnight, ~3 × 10^3 cells were seeded per well in serum free media in 96 well plates at a final volume of 100 µL per well. […] Alamar blue reagent (10 µL) was added in amounts equal to 10% of the volume in the well, and incubated at 37 °C for 4 hours. Fluorescence with excitation at λex = 530–560 nm, and emission at λex = 590 nm was measured.

[2] = test system: vascular endothelial growth factor A (VEGFA); details: IRDye800-labeled, intravenous, n = 17 FAP patients, cited from earlier work
Excerpt: Large molecules, such as antibodies, that have high target affinity are also being utilized for CRC imaging. Bevacizumab is a monoclonal antibody that has been repurposed for imaging by labeling with IRDye800 to detect overexpressed vascular endothelial growth factor A (VEGFA)[46]. This imaging agent was intravenously administered in a total of n = 17 patients with familial adenomatous polyposis (FAP), and n = 51 adenomas were detected. A median T/B ratio = 1.84 was achieved using a dose of 25 mg. Small adenomas with dimensions< 3 mm were detected. Antibodies have long circulation times that l ...

[3] = test system: p-AKT; experiment: Western blot of p-AKT in HT29 cells; format: cell-based, human; details: HT29, serum-starved; HGF 25 ng/mL or QQT*-Cy5.5 5 or 100 μM; 10, 30, 120 min
Procedure: (§2) Peptides are added at concentrations of 5 and 100 μM for 10, 30, and 120 min. Anti-cMet antibody (#8198, Cell Signaling), phospho-cMet (Tyr1234/1235) antibody (#3077, Cell Signaling), anti-AKT (#4691, Cell Signaling), anti-phospho-AKT (#9271, Cell Signaling), anti-ERK1/2 (#ab17942, Abcam,), anti-phospho-ERK1/2 (#ab50011, Abcam), and anti-tubulin (#32-2600, Invitrogen) were used per manufacturer’s instructions.

[4] = test system: p-ERK1/2; experiment: Western blot of p-ERK1/2 in HT29 cells; format: cell-based, human; details: HT29, serum-starved; HGF 25 ng/mL or QQT*-Cy5.5 5 or 100 μM; 10, 30, 120 min
Procedure: as §2

[5] = test system: p-cMet; experiment: Western blot of p-cMet in HT29 cells; format: cell-based, human; details: HT29, serum-starved; HGF 25 ng/mL or QQT*-Cy5.5 5 or 100 μM; 10, 30, 120 min
Procedure: as §2

[6] = test system: HT29 cells; experiment: Alamar blue growth assay, HT29 cells; format: cell-based, human; details: 48 hours, 37 °C; HGF 25 ng/mL or QQT*-Cy5.5 5 or 100 μM; 3 independent experiments
Procedure: as §1

[7] = target: T1, cMet (Homo sapiens, UniProt P08581); experiment: Competition of unlabeled peptide for QQT*-Cy5.5 binding to HT29 cells; details: unlabeled peptide 0, 25, 50, 100, 200 and 400 μM, then 5 μM Cy5.5-labeled peptide, 3 replicate slides, 5 cells per slide
T1 construct: endogenous in cells; host or cells: HT29 human colorectal cancer cells (ATCC)
Procedure: Unlabeled peptides at 0, 25, 50, 100, 200 and 400 μM were first added and then incubated with 5 μM of Cy5.5-labeled peptides. […] The cells were fixed with 4% PFA, and mounted with ProLong Gold reagent containing DAPI.

[8] = test system: mouse cMet-ECD; experiment: Pull-down assay with mouse cMet-ECD; format: binding; details: peptide immobilized on EHS beads; Western blot; by comparison with TLQ*
Procedure: Interactions between peptide and mouse cMet were evaluated using a pull-down assay. Peptides were immobilized on EHS active beads (17-0906-01, GE), and incubated with purified mouse cMet-ECD protein (50622-M08H, Sino Biological). After washing, bound proteins were detected by Western blot.

[9] = target: T1, cMet; experiment: Confocal microscopy of binding to HT29 cells with siRNA knockdown of cMet
Procedure: (§3) The cells were blocked with 1X PBS plus 2% BSA for 1 hour at 4 °C, and were incubated with 5 μM of peptide for 10 min at room temperature (RT) in the dark, washed 3×, and fixed with 4% PFA for 5 min, washed with 1X PBS, and then mounted on glass slides with ProLong Gold reagent containing DAPI (Invitrogen). A 1:3000 dilution of primary monoclonal rabbit anti-cMet antibody (#8198, Cell Signaling Technology) was incubated with the cells in vitro as a positive control. Afterwards, the cells were incubated with a 1:500 dilution of AF488-labeled secondary goat ant-rabbit immunoglobulin G antibody (#A-11029, Life Technologies), and then mounted on glass slides with ProLong Gold reagent containing DAPI. Confocal fluorescence images were collected using a 63X oil-immersion objective (Leica SP5 Inverted 2-Photon FLIM confocal). Fluorescence intensities were quantified using custom Matlab software (Mathworks).
Expression of cMet by HT29 cells was knocked down using siRNA (siRNA1, SASI_Hs01_00133002, Sigma). MISSION® siRNA Universal Negative Control (SIC001, Sigma) was used for control. Cells were transfected with Lipofectamine 2000 (11668027, Invitrogen) per manufacturer instructions, and incubated with 5 μM of peptide for 5 min. A 1:3000 dilution of primary monoclonal rabbit anti-cMet antibody (Cell Signaling Technology, #8198) was used for positive control.

[10] = test system: cMet; experiment: Confocal microscopy of binding to S114 (cMet+) versus NIH3T3 (cMet-) cells; design: species or system mouse
Procedure: Human HT29, SW480, CCD841 colorectal cancer cells and mouse NIH 3T3 embryonic fibroblast cells were obtained from the ATCC. S114 cells (NIH 3T3 cells transformed to express cMet) were provided by courtesy of G Vande Woude (Van Andel Institute). McCoy’s 5A Medium (Gibco) was used for HT29 cells. Dulbecco’s Modified Eagle Medium (Gibco) were used for SW480, NIH3T3, and S114 cells. Eagle’s Minimum Essential Medium (Lonza) was used for CCD841. All cells were cultured at 37 °C in 5% CO2, and supplemented with 10% fetal bovine serum. Reagents for peptide synthesis were obtained from Anaspec (Anaspec) and AAPPTEC (AAPPTEC) at the highest available grade (>99% purity), and were used without further purification. Solvents and other chemical reagents were purchased (Sigma-Aldrich) unless stated otherwise.
as §3

[11] = target: T1, cMet; experiment: Confocal microscopy of binding to HT29 (cMet+) versus SW480 (cMet-) CRC cells
Procedure: as §3

[12] = test system: cMet; experiment: In vivo fluorescence endoscopy of colonic adenomas in CPC;Apc mice; design: species or system mouse; details: intra-rectal 100 μM, 1.5 mL, control peptide 3 days later
Procedure: CPC;Apc mice were used for in vivo imaging. This mouse was genetically engineered to sporadically delete an adenomatous polyposis coli (APC) allele under control of a Cdx2 promoter (CDX2P-9.5NLS-Cre) to spontaneously form either flat or polypoid adenomas in the distal colon. Prior to imaging, the mice were fasted for 4–6 hours. Anesthesia was induced and maintained via a nose cone with inhaled isoflurane mixed with oxygen at concentrations of 2–4% at a flow rate of 0.5 L/min. A rigid small animal endoscope (Karl Storz Veterinary Endoscopy) was inserted into the rectum. White-light illumination was used first to identify the presence of adenomas. Peptides (100 μM, 1.5 mL) were delivered intra-rectally through the instrument channel. After 5 min for incubation, the colon was rinsed with warm tap water 3X to remove stool and debris prior to image collection. After 3 days for the signal from the target peptide to clear, the same mice were imaged using the control peptide. A ratio of the fluorescence and reflectance images was determined to correct for differences in distance and geometry over the image field-of-view (FOV)[33]. […] The mean fluorescence intensity was used to calculate the target-to-background (T/B) ratios. Images were processed and analyzed using custom software in Matlab (Mathworks)[34].

[13] = target: T2, cMet on human HT29 CRC cells (human (endogenous in HT29), UniProt P08581 25-1390); experiment: immunostaining of cells or tissue; confocal fluorescence microscopy of cells incubated with 5 μM Cy5.5-labeled peptide (5-10 min, RT), washed, fixed with 4% PFA; HT29 transfected with siCL or sicMet; HT29 versus SW480; S114 versus NIH3T3; details: one partner purified
T2 construct: cMet, transmembrane tyrosine kinase receptor (hepatocyte growth factor receptor), human; Alpha and beta chains are cut from one precursor; written as one chain; also called HT29 cells (cMet+); source: endogenous, on HT29 cells

[14] = target: T2, cMet on human HT29 CRC cells; experiment: flow cytometry on cells; HT29 cells incubated with peptide at 0-200 nM for 1 hour at 4 °C; apparent dissociation constant by nonlinear regression; details: one partner purified
[15] = 6 replicate slides per condition, 10 cells per slide

T2 sequence (P08581 25-1390): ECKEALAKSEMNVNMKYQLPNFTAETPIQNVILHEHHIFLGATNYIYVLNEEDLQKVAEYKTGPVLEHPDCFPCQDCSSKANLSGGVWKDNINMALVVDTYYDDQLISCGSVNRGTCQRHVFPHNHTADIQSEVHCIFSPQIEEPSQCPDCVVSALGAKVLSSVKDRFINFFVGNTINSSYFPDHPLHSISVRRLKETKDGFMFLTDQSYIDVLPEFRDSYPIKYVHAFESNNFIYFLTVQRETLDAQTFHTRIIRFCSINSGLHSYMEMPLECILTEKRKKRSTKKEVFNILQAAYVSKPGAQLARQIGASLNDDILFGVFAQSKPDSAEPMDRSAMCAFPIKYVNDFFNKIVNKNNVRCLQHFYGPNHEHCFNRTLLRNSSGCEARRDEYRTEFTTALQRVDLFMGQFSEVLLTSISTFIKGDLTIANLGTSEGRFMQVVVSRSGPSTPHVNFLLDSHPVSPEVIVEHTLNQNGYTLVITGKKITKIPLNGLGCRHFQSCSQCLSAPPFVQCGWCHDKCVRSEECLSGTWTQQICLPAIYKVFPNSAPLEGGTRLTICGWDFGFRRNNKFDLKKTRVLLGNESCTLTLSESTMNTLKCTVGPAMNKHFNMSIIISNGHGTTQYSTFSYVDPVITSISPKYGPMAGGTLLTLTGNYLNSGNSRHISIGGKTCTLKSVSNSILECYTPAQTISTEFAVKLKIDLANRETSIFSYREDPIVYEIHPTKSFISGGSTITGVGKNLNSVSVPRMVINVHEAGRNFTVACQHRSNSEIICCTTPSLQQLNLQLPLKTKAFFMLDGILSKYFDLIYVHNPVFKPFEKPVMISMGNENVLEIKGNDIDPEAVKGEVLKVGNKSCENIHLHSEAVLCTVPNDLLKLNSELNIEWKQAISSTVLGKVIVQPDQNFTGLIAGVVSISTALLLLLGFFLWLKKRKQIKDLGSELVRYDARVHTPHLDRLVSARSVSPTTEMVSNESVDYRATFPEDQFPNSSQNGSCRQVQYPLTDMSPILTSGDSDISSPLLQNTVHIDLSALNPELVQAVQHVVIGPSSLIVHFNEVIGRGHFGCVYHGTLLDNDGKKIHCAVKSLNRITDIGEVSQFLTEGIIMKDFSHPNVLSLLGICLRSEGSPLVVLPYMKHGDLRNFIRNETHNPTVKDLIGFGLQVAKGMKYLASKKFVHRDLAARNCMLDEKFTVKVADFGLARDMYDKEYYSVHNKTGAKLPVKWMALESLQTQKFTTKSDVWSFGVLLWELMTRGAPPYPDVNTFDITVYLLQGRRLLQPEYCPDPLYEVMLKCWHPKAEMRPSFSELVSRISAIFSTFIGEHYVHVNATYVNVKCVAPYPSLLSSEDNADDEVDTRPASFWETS
T1 sequence (P08581 25-1390): as above

With `CC(C)C[C@H](NC(=O)[C@H](CO)NC(=O)[C@H](Cc1c[nH]c2ccccc12)NC(=O)[C@H](CC(N)=O)NC(=O)[C@@H](NC(=O)[C@H](CCC(N)=O)NC(=O)[C@@H](N)CCC(N)=O)[C@@H](C)O)C(=O)NCC(=O)NCC(=O)NCC(=O)N[C@@H](CO)C(=O)N[C@@H](CCCCNC(=O)CCCCC[N+]1=C(/C=C/C=C/C=C2/N(C)c3ccc4ccccc4c3C2(C)C)C(C)(C)c2c1ccc1ccccc21)C(N)=O` [QQT*-Cy5.5] (H-QQTNWSLGGGSK(X1)-NH2) the “Growth of CCD841 normal colon cells” value [1] was “no effect on growth”.

For “Bevacizumab: monoclonal antibody repurposed for imaging by labeling with IRDye800 to detect overexpressed VEGFA”, the “Median T/B ratio” value ([2]; 25 mg) is listed as 1.84, the “Dimensions of small adenomas detected” value [2] is listed as under 3 mm and the “Number of adenomas detected” value [2] is listed as 51.

With “HGF: recombinant human hepatocyte growth factor (HGF, 294-HG-005, R&D), a known ligand for cMet” the “Phosphorylation of downstream AKT (p-AKT)” value [3] was “strong phosphorylation activity”, the “Phosphorylation of downstream ERK1/2 (p-ERK1/2)” value [4] was “strong phosphorylation activity” and the “Phosphorylation of cMet (p-cMet)” value [5] was “strong phosphorylation activity”. For the same molecule, the “Growth of CCD841 normal colon cells” value [1] was “not (C) CCD841 cells” and the “Growth of HT29 cells” value [6] was “increased growth”.

For QQTNWSL [QQT*], the “Competition: fluorescence intensity of QQT*-Cy5.5 binding with increasing unlabeled peptide” value [7] was “decreased significantly” and the “Pull-down band for binding to mouse cMet-ECD” value [8] was “strong band”.

For “TLQWNQS [TLQ*, unlabeled control peptide TLQ*]”, the “Competition: fluorescence intensity of QQT*-Cy5.5 binding with increasing unlabeled peptide” value [7] was “not with TLQ*”.

With TLQWNQS [TLQ*-Cy5.5] the “Change in fluorescence intensity, siCL versus sicMet (in words)” value ([9]; HT29, ANOVA on log-transformed data, 6 replicate slides per condition) was “non-significant decrease”, the “Binding to surface of HT29 cells transfected with siCL (control)” value ([9]; HT29 siCL, peptide 5 μM, antibody 1:3000, confocal fluorescence) was “minimal binding” and the “Binding to HT29 cells transfected with sicMet (cMet knockdown)” value ([9]; HT29 sicMet, peptide 5 μM, 5 min, antibody 1:3000, confocal fluorescence) was “little binding”. The “Change in mean intensity, S114 versus NIH3T3 (in words)” value [10, 15] was “non-significant increase”, the “Binding to NIH3T3 cells (cMet-)” value ([10]; NIH3T3, confocal, peptide 5 μM 10 min RT, antibody 1:3000) was “nominal binding” and the “Binding to surface of S114 cells (cMet+)” value ([10]; S114, confocal, peptide 5 μM 10 min RT, antibody 1:3000) was “minimal binding”. For the same molecule, the “Change in mean intensity, HT29 versus SW480 (in words)” value [11, 15] was “non-significant decrease”, the “Binding to surface of HT29 cells (cMet+)” value ([11]; HT29, confocal, peptide 5 μM 10 min RT, antibody 1:3000) was “minimal binding” and the “Binding to SW480 cells (cMet-)” value ([11]; SW480, confocal, peptide 5 μM 10 min RT, antibody 1:3000) was “minimal binding”. The “Fluorescence from representative polyp” value [12] was “minimal signal” and the “Fluorescence from representative flat lesion” value ([12]; same lesion) was “minimal signal”.

B1: QQT*-Cy5.5 (peptide)
peptide: QQTNWSLGGGSK-{Cy5.5}
modifications: not fully specified
notes: heptapeptide selected by phage display (Ph.D.-7 library) against the extra-cellular domain of cMet; linker between the peptide and Cy5.5; also called QQTNWSL; cMet peptide; source: synthetic peptide (Fmoc solid-phase synthesis, purified with HPLC)
With B1 the “fold change of fluorescence intensity against TLQ*-Cy5.5” value [13] was 8.1 fold, the “fold change of fluorescence intensity, siCL versus sicMet transfected cells” value [13] was 2.9 fold and the Kd [14] was 57 nM.
